In patent publication US4261978A, “Treatment and prophylaxis of swine dysentery” (Takeda Chemical Industries, Ltd., priority 1978, dated 1981):
Values after ≈ are worked out from the molar mass of the structure shown. Like-named read-outs stand apart in the source and are kept apart here.

Experiments:
[1] = test system: Treponema hyodysenteriae; test: Minimum inhibitory concentration against Treponema hyodysenteriae (agar dilution); format: cell-based; conditions: 10^6 CFU/ml. loopful, 37° C., 2 days; for MIC: Brachyspira hyodysenteriae, 48 h
Procedure: (1)Strains: These strains belong to Treponema hyodysenteriae isolated fro
the bloody mucous faeces of dysenteric pigs; MK 1, MK 2 and MK 4 were
obtained in Kyushu District of Japan while OX 1 was obtained in Okinawa,
(2)Antimicrobial potency assay: Agar Dilution Method
(3) Inoculum size: a loopful of 10^6 CFU/ml.
(4)Cultural conditions: Gas Pak (BBL) method, 37° C., 2 days

[2] = Acute oral toxicity (LD50); format: in vivo, mouse; conditions: for LD50: mouse, oral
Excerpt: (C) Carriomycin is extremely low in toxicity to animals.

[3] = test system: Treponema hyodysenteriae; test: Therapeutic efficacy of medicated feed in pigs experimentally infected with swine dysentery; format: in vivo, pigs (SPF LW)
Procedure: A premix containing 10% of carriomycin monosodium salt crystals as diluted with finely milled soybean meal was added to a feedstuff and pigs were allowed to take the feed as libitum. The feed was the proprietary pig starter mentioned in Example 2 without added antibiotics. The pigs were SPF LW and used in groups of 4 animals (2 male and 2 female.)
The pigs were infected as follows. Thus, Treponema hyodysenteriae was anaerobically grown on a 5% horse blood agar plate and the resultant culture was homogenized and admixed with 3% mucin-phosphate buffer. The mixture was directly administered into the stomach of each SPF pig. From each of the pigs showing typical symptoms of swine dysentery, the colon content and mucous membrane were taken and diluted two-fold with 3% mucin-phosphate buffer to obtain a final infective material. An 80 ml. portion of this preparation was directly infused into the stomach of each test pig, which was then put on the unmedicated feed for the initial six days. Beginning with the 7th day, each pig was put on the feed medicated with one of predetermined concentrations of the test drug and was reared for a total of 28 days. Tests were performed for three groups of animals dosed with 0 ppm. 15 ppm. and 150 ppm., respectively, of carriomycin.

[4] = Absorption from the digestive tract and residue in the animal body; conditions: in words

In the case of `COC1CCC(OC2C(C)C(CC3CC(OC)C(C)C4(O3)OC(C)(C3CCC(C5CCC(C6OC(C)(O)C(C)CC6C)O5)O3)C(OC)C4C)OC(O)(C(C)C(=O)O)C2C)OC1C` (stereo not drawn) [Carriomycin, carriomycin], the “Minimum inhibitory concentration (MIC)” value ([1]; strain MK 1) is reported as 0.1 µg/mL (≈ 0.113 µM), the “Minimum inhibitory concentration (MIC)” value ([1]; strain MK 2) is reported as 0.1 µg/mL (≈ 0.113 µM) and the “Minimum inhibitory concentration (MIC)” value ([1]; strain MK 4) is reported as 0.1 µg/mL (≈ 0.113 µM). The “Minimum inhibitory concentration (MIC)” value ([1]; strain OX 1) was 0.1 µg/mL (≈ 0.113 µM), the toxicity to animals ([2]; in words) was “extremely low” and the LD50 [2] was “about 2,000 mg./kg”. For the same molecule, the “Mean body weight at end of test” value ([3]; group B, 15 ppm. in feed) was 29.1 kg./head, the “Mean feed conversion ratio” value ([3]; group B, 15 ppm. in feed) was 2.5 and the Mean feed intake ([3]; group B, 15 ppm. in feed) was 36.5 kg./head. For the same molecule, the “Mean number of days with bloody mucous faeces” value ([3]; group B, 15 ppm. in feed) was 0.5 days/head, the “Mean number of days with diarrhea” value ([3]; group B, 15 ppm. in feed) was 3.0 days/head and the Mean weight gain ([3]; group B, 15 ppm. in feed) was 14.6 kg./head. For the same molecule, the “Mean body weight at end of test” value ([3]; group C, 150 ppm. in feed) was 31.7 kg./head, the “Mean feed conversion ratio” value ([3]; group C, 150 ppm. in feed) was 2.3 and the Mean feed intake ([3]; group C, 150 ppm. in feed) was 37.3 kg./head. The “Mean number of days with bloody mucous faeces” value ([3]; group C, 150 ppm. in feed) was 0.1 days/head, the “Mean number of days with diarrhea” value ([3]; group C, 150 ppm. in feed) was 1.5 days/head and the Mean weight gain ([3]; group C, 150 ppm. in feed) was 16.2 kg./head. For the same molecule, the body weight gain ([3]; in words, from Table 2) was “considerable increases”, the “feed conversion ratio, number of days with diarrhea and number of days with bloody mucous faeces” value ([3]; in words, from Table 2) was “considerable improvements” and the “absorption from the digestive tract” value [4] was “sparingly absorbed”. The “residue in the animal body” value [4] was “substantially no residue”.

Work on `CCC(C(=O)C(C)C(O)C(C)CCc1ccc(C)c(O)c1C(=O)O)C1OC(CC)(C2CCC(O)(CC)C(C)O2)CC1C` (stereo not drawn) [Lasalocid A] yielded an MIC ([1]; strain MK 1) of 10 µg/mL (≈ 16.9 µM), an MIC ([1]; strain MK 2) of 10 µg/mL (≈ 16.9 µM) and an MIC ([1]; strain MK 4) of 10 µg/mL (≈ 16.9 µM). It also gave an MIC ([1]; strain OX 1) of 10 µg/mL (≈ 16.9 µM) and an LD50 ([2]; in vivo, read-out: LD50) of 146 mg/kg.

For `CC[C@@]1([C@@H]2O[C@@H]([C@H]3O[C@@](O)(CO)[C@H](C)C[C@@H]3C)C[C@@H]2C)CC[C@H]([C@]2(C)CC[C@]3(C[C@H](O)[C@@H](C)[C@@H]([C@@H](C)[C@@H](OC)[C@H](C)C(=O)O)O3)O2)O1` [Monensin], the MIC ([1]; strain MK 1) was 1 µg/mL (≈ 1.49 µM), the MIC ([1]; strain MK 2) was 1 µg/mL (≈ 1.49 µM) and the MIC ([1]; strain MK 4) was 1 µg/mL (≈ 1.49 µM). For the same molecule, the MIC ([1]; strain OX 1) was 1 µg/mL (≈ 1.49 µM).

In the case of `CC[C@@H](C(=O)[C@@H](C)[C@@H](O)[C@H](C)[C@@H]1O[C@@H]([C@@H](CC)C(=O)O)CC[C@@H]1C)[C@H]1O[C@]2(C=C[C@@H](O)[C@]3(CC[C@@](C)([C@H]4CC[C@](O)(CC)[C@H](C)O4)O3)O2)[C@H](C)C[C@@H]1C` [Salinomycin, salinomycin], the MIC ([1]; strain MK 1) is reported as 1 µg/mL (≈ 1.33 µM), the MIC ([1]; strain MK 2) is reported as 1 µg/mL (≈ 1.33 µM) and the MIC ([1]; strain MK 4) is reported as 0.1 µg/mL (≈ 0.133 µM). It also gave an MIC ([1]; strain OX 1) of 1 µg/mL (≈ 1.33 µM) and an LD50 ([2]; in vivo, read-out: LD50) of 50 mg/kg.
